{"source": "patent US7410765B2", "about": "“System for protease mediated protein expression” (The Regents of the University of California, priority 2004, dated 2008)", "test_system": "caspase-3", "assay": "Caspase-3-dependent DsRed fluorescence in live transgenic zebrafish embryos injected with the UbG-DEVDsRx reporter construct", "assay_type": "in vivo", "description": "As discussed in detail below, the invention was tested by making a construct where the degradation signal is a non-removable ubiquitin moiety (G76V zebrafish ubiquitin mutant) fused to the red fluorescent protein DsRed Express by a linker containing a caspase-3 cleavage site (amino acid sequence: DEVD; SEQ ID NO: 1). […] The DNA construct was microinjected in one-cell-stage zebrafish embryos to generate transgenic fish where apoptotic cells express the red fluorescent marker.\nSpecific labelling of apoptotic cells by UbG-DEVDsRx depends on a functional proteasomal degradation pathway because failure to degrade the UbG76V-tagged chimera would allow fluorescence to develop, even in the absence of caspase-3 activity.\nMorpholino-modified oligonucleotides were injected in the yolk of one-cell-stage embryos. DNA constructs were linearized and injected in the cytoplasm of one-cell-stage embryos. For each experiment, 200-250 transgenics were generated. Upon reaching the desired age, 20-30 embryos with similar transgene expression levels and low-mosaicism were selected for TUNEL labelling, confocal microscopy, in vivo observations and cell counts.\nFixed and live embryos were embedded in 1.2% low-melt agarose on a glass slide and immersed in a drop of water to retain humidity.", "data": [{"smiles": "COC(=O)CC[C@H](NC(=O)[C@H](CC(=O)OC)NC(=O)OCc1ccccc1)C(=O)N[C@H](C(=O)N[C@@H](CC(=O)OC)C(=O)CF)C(C)C", "note": "[Z-DEVD-FMK]", "values": [{"measurement": "expression of red fluorescence in embryo injected with the test construct", "setting": "embryo incubated in the presence of Z-DEVD-FMK, 75 μM, FIG. 1e", "value": "does not express any fluorescence"}, {"measurement": "fluorescence (UbG-DEVDsRx labelling) in living transgenic embryos", "setting": "embryos exposed to the caspase-3 inhibitor, concentration not given", "value": "fluorescence is absent"}]}]}
